In PubChem BioAssay AID1963983 (Molecular Pharmacology Branch, DTP, NCI, 2024):
pIC50: −log10 of the molar value.

Tested on: 186277-243-T-J2-PDC multi-cell spheroid viability
Assay: Anticancer human tumor 186277-243-T-J2-PDC patient-derived colon adenocarcinoma cell line growth inhibition [PI3K]
Conditions: for pIC50: curve of first compound; for viability, T/C: stronger effect = lower value
Excerpt: Combinatorial screen of targeted agents with the PI3K inhibitors inavolisib, alpelisib, duvelisib, and copanlisib in multi-cell type tumor spheroids
A high-throughput screen of multi-cell type tumor spheroids was designed to identify active combinations of targeted small molecules and PI3K pathway inhibitors. Complex spheroids include a stromal component modeled by human endothelial cells (HUVEC) and fibroblasts modeled by human mesenchymal stem cells (MSCs). The concentration ranges selected for each drug and investigational agent were based upon clinically achievable concentrations if the clinical Cmax of the agent was known.
Compounds. The drugs and investigational agents: inavolisib (NSC800729), alpelisib (NSC765974), duvelisib (NSC772469), copanlisib (NSC816437), ipatasertib (NSC767898), afuresertib (NSC778305), talazoparib (NSC767125), sapanisertib (NSC764658), selumetinib (NSC741078), tovorafenib (DAY101, NSC766906), vemurafenib (NSC761431), ravoxertinib (NSC781343), sotorasib (NSC818433), MRTX1133 (NSC 836407), abemaciclib (NSC 768073), palbociclib (NSC758247), venetoclax (NSC 766270), SY5609 (NSC837396), enzalutamide (NSC755605), and darolutamide (NSC825331), were obtained from the National Cancer Institute (NCI) Developmental Therapeutics Program Chemical Repository. The FDA-approved anticancer drug set is available from the NCI Developmental Therapeutics Program. […] The stock solutions were prepared in dimethyl sulfoxide (DMSO, Sigma-Aldrich, St. Louis, MO, cat. D2650) at 800-fold the tested concentration and stored at -70 degrees C prior to their use. All drugs and investigational agents were tested over a range starting from a high concentration at or near the clinical Cmax and decreasing in half-log increments. If the clinical Cmax for an agent had not been determined, the highest concentration tested was 10 microM.
Cell Culture. All cells were maintained in an incubator at 37 degrees C and 5% CO2 with 95% humidity. The PDC lines were cultured according to standard operating procedures established by the NCI PDMR (https://pdmr.cancer.gov/sops/default.htm). All PDCs were thawed and cultured in Matrigel-coated flasks prepared with a working solution of 1X Ham's F-12 nutrient mix, without supplementation (Invitrogen, Waltham, MA, cat. 11765054), 100 U/mL penicillin-streptomycin (Invitrogen, cat. 15140122), and 2.5% Matrigel (Corning Inc., Corning, NY, cat. 354248) for the first three passages. The 354836-022-R-J1-PDC, 475296-252-R-J1-PDC, and 997726-040-R-J2-PDC lines were cultured in 6A media, which includes advanced DMEM/F-12 (Thermo Fisher Scientific, cat. 12634028), 10 mM HEPES (Thermo Fisher Scientific, cat. 15630080), 1X GlutaMAX supplement (Thermo Fisher Scientific, cat. 35050061), 0.1 mg/mL primocin (InvivoGen, San Diego, CA, cat. ant-pm-2), 10% defined fetal bovine serum, heat inactivated (HyClone Laboratories Inc., Logan, UT, cat. SH30070.03HI), 50% L-WRN conditioned media (ATCC, cat. CRL-3276), 1.25 mM N-Acetyl-L-cysteine (Sigma-Aldrich, cat. A9165), 10 mM nicotinamide (Sigma-Aldrich, cat. N0636), 1X B-27 supplement (Thermo Fisher Scientific, cat. 17504044), 1X N-2 supplement (Thermo Fisher Scientific, cat. 17502048), and 10 microM Y-27632 dihydrochloride (Tocris Bioscience, Bristol, United Kingdom, cat. 1254). The 624824-186-R-J2-PDC line was cultured in 6C/Colon 1B media, which includes all 6A media components plus 50 ng/mL human EGF recombinant protein (Thermo Fisher Scientific, cat. PHG0311). […]
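Further: spheroids exposed to compounds for seven days before viability reading.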
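Wherever viability, T/C is given: 100% = DMSO vehicle control viability.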

`C=CC(=O)N1CCN(c2nc(=O)n(-c3c(C)ccnc3C(C)C)c3nc(-c4c(O)cccc4F)c(F)cc23)C(C)C1` (configuration not stated) + CC(Nc1ccc2c(c1)OCCn1cc(N3C(=O)OCC3C(F)F)nc1-2)C(N)=O was tested, and the pIC50 (second compound 0.00316 µM) was < 5.00, the pIC50 (second compound 0.01 µM) was < 5.00 and the pIC50 (second compound 0.0316 µM) was < 5.00. The pIC50 (second compound 0.1 µM) was < 5.00, the pIC50 (second compound 0.316 µM) was 5.30 and the pIC50 (second compound 1 µM) was > 7.50. It also gave a viability, T/C (second compound 0.00316 µM, first compound 0.0316 µM) of 109%, a viability, T/C (second compound 0.00316 µM, first compound 0.1 µM) of 88.5% and a viability, T/C (second compound 0.00316 µM, first compound 0.316 µM) of 94.7%. The viability, T/C (second compound 0.00316 µM, first compound 1 µM) was 94.9%, the viability, T/C (second compound 0.00316 µM, first compound 3.16 µM) was 109% and the viability, T/C (second compound 0.00316 µM, first compound 10 µM) was 93.9%. It also gave a viability, T/C (second compound 0.01 µM, first compound 0.0316 µM) of 103%, a viability, T/C (second compound 0.01 µM, first compound 0.1 µM) of 99.4% and a viability, T/C (second compound 0.01 µM, first compound 0.316 µM) of 107%. It also gave a viability, T/C (second compound 0.01 µM, first compound 1 µM) of 101%, a viability, T/C (second compound 0.01 µM, first compound 3.16 µM) of 103% and a viability, T/C (second compound 0.01 µM, first compound 10 µM) of 102%. The viability, T/C (second compound 0.0316 µM, first compound 0.0316 µM) was 104%, the viability, T/C (second compound 0.0316 µM, first compound 0.1 µM) was 102% and the viability, T/C (second compound 0.0316 µM, first compound 0.316 µM) was 105%. It also gave a viability, T/C (second compound 0.0316 µM, first compound 1 µM) of 112%, a viability, T/C (second compound 0.0316 µM, first compound 3.16 µM) of 115% and a viability, T/C (second compound 0.0316 µM, first compound 10 µM) of 87.2%. The viability, T/C (second compound 0.1 µM, first compound 0.0316 µM) was 103%, the viability, T/C (second compound 0.1 µM, first compound 0.1 µM) was 107% and the viability, T/C (second compound 0.1 µM, first compound 0.316 µM) was 88.3%. For the same molecule, the viability, T/C (second compound 0.1 µM, first compound 1 µM) was 94.4%, the viability, T/C (second compound 0.1 µM, first compound 3.16 µM) was 86.6% and the viability, T/C (second compound 0.1 µM, first compound 10 µM) was 74.4%. For the same molecule, the viability, T/C (second compound 0.316 µM, first compound 0.0316 µM) was 82.2%, the viability, T/C (second compound 0.316 µM, first compound 0.1 µM) was 74.8% and the viability, T/C (second compound 0.316 µM, first compound 0.316 µM) was 67.7%. It also gave a viability, T/C (second compound 0.316 µM, first compound 1 µM) of 74.7%, a viability, T/C (second compound 0.316 µM, first compound 3.16 µM) of 56.9% and a viability, T/C (second compound 0.316 µM, first compound 10 µM) of 37.4%. It also gave a viability, T/C (second compound 1 µM, first compound 0.0316 µM) of 48.2%, a viability, T/C (second compound 1 µM, first compound 0.1 µM) of 50.1% and a viability, T/C (second compound 1 µM, first compound 0.316 µM) of 50.9%. It also gave a viability, T/C (second compound 1 µM, first compound 1 µM) of 48.1%, a viability, T/C (second compound 1 µM, first compound 3.16 µM) of 32.8% and a viability, T/C (second compound 1 µM, first compound 10 µM) of 22.9%.
